Data published in US3991200A, “Substituted nitroimidazolyl thiadiazoles and oxadiazoles as antibacterial agents and growth promoting compounds” (American Cyanamid Company, priority 1973, dated 1976).
Several values for one entry are separate records, joined by “and”; a condition that tells them apart may be missing. Equal entries are not always repeated.

Assays:
Salmonella gallinarum = experiment: controlling fowl typhoid in chicks, medicated feed; format: in vivo, Salmonella gallinarum (in sex-linked pullet chicks); conditions: 10 days
Experimental: Groups of five one-day old sex-linked pullet checks are infected orally by gavage with 0.5 ml. of a 10^-^2 dilution of a five-hour Trypticase Soy Broth culture of Salmonella gallinarum, the causative agent of fowl typhoid. Each chick receives approximately 6 × 10^5 viable cells. Medication is administered continuously in the feed, beginning 3 hours before infection and continuing for 10 days, at which time the test is terminated and the number of survivors in each group recorded. Each test utilizes two control groups of chicks, the first group comprising 20 chicks which are infected and untreated, and the second group comprising 10 chicks which are uninfected and untreated. The results of the tests are set forth in the following Table III (in some instances, the results from two or more tests are combined): […]

Pasteurella multocida [1] = experiment: controlling a Pasteurella multocida infection in mice; format: in vivo, Pasteurella multocida (in Swiss Webster female mice); conditions: 336 h, 2 mg./mouse by gavage, two weeks post-infection, read-out: Survivors/Total (converted)
Experimental: Swiss Webster, female mice weighing 22±2 g. were infected by intrapeutoneal injection of 0.5 ml. of a 5 hour Trypticase Soy Broth culture containing 10^7 cfu. of P. multocida. Each mouse was given by gavage at the time of infection 2 mg. of the test drug suspended in 0.2% agar.

Escherichia coli = experiment: controlling colibacillosis in chicks infected with Escherichia coli, single oral dose; format: in vivo, Escherichia coli (in sex-linked pullet chicks); conditions: 12 days after treatment
Experimental: Three groups of 10 five-day old sex-linked pullet chicks are infected parenterally, in the left thoracic air sac, with 0.2 ml. of a 10^-^1 dilution of a Trypticase Soy Broth culture of Escherichia coli, the causative agent of colibacillosis in poultry. The compounds to be tested are administered by gavage as a single oral dose in an aqueous solution or suspension, and the chicks are permitted to feed ad libitum the feed composition prepared in Example 44. Twelve days after treatment, the test is terminated and the number of survivors in each group recorded.
Four groups of 40, five-day old sex-linked pullet chicks are infected in the same manner as herein set forth with Escherichia coli. […] Twelve days after treatment, the test is terminated and the number of survivors in each group recorded.

Pasteurella multocida [2] = experiment: controlling a Pasteurella multocida infection in mice; format: in vivo, Pasteurella multocida (in Swiss Webster female mice); conditions: 336 h, two weeks post-infection, read-out: Survivors/Total (converted); for responders at 0.25 mg: 0.25 mg./mouse by gavage; for responders at 0.5 mg: 0.5 mg./mouse by gavage; for responders at 1 mg: 1 mg./mouse by gavage
[3] = enhancing the growth rate and improving feed efficiency, chicks; format: in vivo
Source text: Day-old chicks are divided into groups of ten birds each, five males and five females. These groups are then weighted, placed in pens and given free access to water and feed. […] All feed is weighed such that an accurate determination as to the amount of gain per unit of feed can be ascertained. […]

[4] = 0.025% in feed, 5 chicks tested
[5] = 0.025% in feed, 10 chicks tested
[6] = 0.006% in feed, 10 chicks tested
[7] = 10 ppm in diet, 10 birds, 19 days, listed as 1-[5-(1-Methyl-5-nitro-2-imidazolyl)-1,3,4-thiadiazol-2-yl]-4-(2-thiazolyl)piper
[8] = 10 ppm in diet, 10 birds, listed as 1-[5-(1-Methyl-5-nitro-2-imidazolyl)-1,3,4-thiadiazol-2-yl]-4-(2-thiazolyl)piper
[9] = 10 ppm in diet, 10 birds, 19 days
[10] = 0.006% in feed, 5 chicks tested
[11] = 100 PPM in diet, average of two groups
[12] = 100 PPM in diet, groups of 10 and 9 birds, listed as 2-(2-amino-5-thiadiazolyl)-1-(2-hydroxyethyl)5-nitroimidazole

## Cn1c([N+](=O)[O-])cnc1-c1nnc(NC(=O)CN2CCOCC2)s1 [2-(2-Morpholinoacetamido-5-thiadiazolyl)-1-methyl-5-nitroimidazole]
Salmonella gallinarum; [4]
  Survivors: 1
Salmonella gallinarum; 0.1% in feed, 10 chicks tested
  Survivors: 10
Pasteurella multocida [1]
  responders at 2 mg: 20%

## Cn1c([N+](=O)[O-])cnc1-c1nnc(NC(=O)C(Cl)Cl)s1 [2-(2-Dichloroacetamido-5-thiadiazolyl)-1-methyl-5-nitroimidazole]
Salmonella gallinarum; 0.025% in feed, 15 chicks tested
  Survivors: 3
Salmonella gallinarum; 0.1% in feed, 10 chicks tested
  Survivors: 7

## Cn1c([N+](=O)[O-])cnc1-c1nnc(N2CCNCC2)s1 [2-[2-(1-Piperazinyl)-5-thiadiazolyl]-1-methyl-5-nitroimidazole]
Salmonella gallinarum; [5]
  Survivors: 1
Salmonella gallinarum; 0.1% in feed, 10 chicks tested
  Survivors: 8
Escherichia coli; 40 mg/kg single oral dose, 20 chicks tested
  Survivors: 6
Escherichia coli; 160 mg/kg single oral dose, 20 chicks tested
  Survivors: 18
Pasteurella multocida [1]
  responders at 2 mg: 10%

## CCCCCCNc1nnc(-c2ncc([N+](=O)[O-])n2C)s1 [2-(2-n-Hexylamino-5-thiadiazolyl)-1-methyl-5-nitroimidazole]
Pasteurella multocida [2]
  responders at 0.25 mg: 20%
  responders at 0.5 mg: 80%
  responders at 1 mg: 90%
Salmonella gallinarum; 0.1% in feed, 10 chicks tested
  Survivors: 6

## Cn1c([N+](=O)[O-])cnc1-c1nnc(NCO)s1 [2-(2-Hydroxymethylamino-5-thiadiazolyl)-1-methyl-5-nitroimidazole]
Salmonella gallinarum; [6]
  Survivors: 2
Salmonella gallinarum; [5]
  Survivors: 2
Salmonella gallinarum; 0.1% in feed, 10 chicks tested
  Survivors: 10
Pasteurella multocida [1]
  responders at 2 mg: 100%

## CN(CCO)c1nnc(-c2ncc([N+](=O)[O-])n2C)s1 [2-{2-N-(2-Hydroxyethyl)methylamino]-5-thiadiazolyl}-1-methyl-5-nitroimidazolo]
Pasteurella multocida [2]
  responders at 0.5 mg: 10%
  responders at 1 mg: 30%
Salmonella gallinarum; 0.1% in feed, 10 chicks tested
  Survivors: 8
Pasteurella multocida [1]
  responders at 2 mg: 100%

## Nc1nnc(-c2ncc([N+](=O)[O-])n2Cc2ccccc2)o1 [2-(2-Amino-5-oxadiazolyl)-1-benzyl-5-nitroimidazole]
Salmonella gallinarum; [6]
  Survivors: 1
Salmonella gallinarum; [5]
  Survivors: 1
Salmonella gallinarum; 0.1% in feed, 10 chicks tested
  Survivors: 9

## Cn1c([N+](=O)[O-])cnc1-c1nnc(N2CCN(c3nccs3)CC2)s1 [2-{2-[4-(2-Thiazolyl)-1-piperazinyl]-5-thiadiazolyl]-1-methyl-5-nitroimidazole]
[3]; [7]
  % Increase Over Controls, F/G: 4.1% and 2.0%
  % Increase Over Controls, Gain: 5.0% and 9.0%
  lb.feed/lb. gain: 1.47 lb.feed/lb. gain and 1.50 lb.feed/lb. gain
[3]; [8]
  Gain 19 Days: 315.5 Grams and 303.2 Grams
  Weight at 19 days: 337.8 Grams and 346.9 Grams
Pasteurella multocida [1]
  responders at 2 mg: 20%

## Cn1c([N+](=O)[O-])cnc1-c1nnc(N2CCCCC2)s1 [2-(2-Piperidino-5-thiadiazolyl)-1-methyl-5-nitroimidazole]
Pasteurella multocida [2]
  responders at 0.25 mg: 50%
  responders at 0.5 mg: 40%
  responders at 1 mg: 90%
[3]; 10 ppm in diet, 10 birds
  Gain 19 Days: 292.7 Grams
  Weight at 19 days: 334.7 Grams
[3]; [9]
  % Increase Over Controls, F/G: 2.7%
  % Increase Over Controls, Gain: 1.0%
  lb.feed/lb. gain: 1.48 lb.feed/lb. gain
Salmonella gallinarum; 0.1% in feed, 10 chicks tested
  Survivors: 4

## Cn1c([N+](=O)[O-])cnc1-c1nnc(NC2CCCCC2)s1 [2-(2-Cyclohexylamino-5-thiadiazolyl)-1-5-nitroimidazole]
Salmonella gallinarum; 0.1% in feed, 10 chicks tested
  Survivors: 8

## CC(=O)Nc1nnc(-c2ncc([N+](=O)[O-])n2C)s1 [2-(2-Acetamido-5-thiadiazolyl)-1-methyl-5-nitro-imidazole]
Salmonella gallinarum; [10]
  Survivors: 3
Salmonella gallinarum; [4]
  Survivors: 4
Salmonella gallinarum; 0.1% in feed, 5 chicks tested
  Survivors: 5
Escherichia coli; 10 mg/kg single oral dose, 40 chicks tested
  Survivors: 29
Escherichia coli; 20 mg/kg single oral dose, 40 chicks tested
  Survivors: 35
Escherichia coli; 40 mg/kg single oral dose, 40 chicks tested
  Survivors: 39

## CCNc1nnc(-c2ncc([N+](=O)[O-])n2C)s1 [2-(2-Ethylamino-5-thiadiazolyl)-1-methyl-5-nitroimidazole]
Salmonella gallinarum; [10]
  Survivors: 3
Salmonella gallinarum; [5]
  Survivors: 3
Salmonella gallinarum; 0.1% in feed, 10 chicks tested
  Survivors: 10
Pasteurella multocida [1]
  responders at 2 mg: 100%

## Nc1nnc(-c2ncc([N+](=O)[O-])n2CCO)o1 [2-(2-Amino-5-oxadiazolyl)-1-(2-hydroxyethyl)-5-nitroimidazole]
Pasteurella multocida [2]
  responders at 0.5 mg: 90%
Pasteurella multocida [1]
  responders at 2 mg: 100%

## Nc1nnc(-c2ncc([N+](=O)[O-])n2Cc2ccccc2)s1 [2-(2-Amino-5-thiadiazolyl)-1-benzyl-5-nitroimidazole]
Salmonella gallinarum; [5]
  Survivors: 4
Salmonella gallinarum; 0.1% in feed, 10 chicks tested
  Survivors: 10
Pasteurella multocida [1]
  responders at 2 mg: 0%

## CN(C)c1nnc(-c2ncc([N+](=O)[O-])n2CCO)o1 [2-(2-dimethylamino-5-oxadiazolyl)-1-(2-hydroxyethyl)-5-nitroimidazole]
Salmonella gallinarum; [5]
  Survivors: 2
Salmonella gallinarum; 0.1% in feed, 10 chicks tested
  Survivors: 5

## CN(C)CCCC1CCN(c2nnc(-c3ncc([N+](=O)[O-])n3C)s2)CC1 [2-{2-[4-(3-Dimethylaminopropyl)-1-piperidino]-5-thiadiazolyl}-1-methyl-5-nitroimidazole]
Pasteurella multocida [2]
  responders at 0.5 mg: 90%
Pasteurella multocida [1]
  responders at 2 mg: 100%

## CN1CCN(c2nnc(-c3ncc([N+](=O)[O-])n3C)s2)CC1 [2-[2-(4-Methyl-1-piperazinyl)-5-thiadiazolyl)-1-methyl-5-nitroimidazole]
Salmonella gallinarum; 0.1% in feed, 10 chicks tested
  Survivors: 4

## CCCn1c([N+](=O)[O-])cnc1-c1nnc(N)s1 [2-(2-amino-5-thiadiazolyl)-1-propyl-5-nitroimidazolo]
Salmonella gallinarum; 0.1% in feed, 10 chicks tested
  Survivors: 6

## CNc1nnc(-c2ncc([N+](=O)[O-])n2C)o1 [2-(2-Methylamino-5-oxadiazolyl)-1-methyl-5-nitroimidazole]
Salmonella gallinarum; [6]
  Survivors: 8
Salmonella gallinarum; [5]
  Survivors: 10
Salmonella gallinarum; 0.1% in feed, 5 chicks tested
  Survivors: 5

## Cn1c([N+](=O)[O-])cnc1-c1nnc(N2CCN(CCO)CC2)s1 [2-[4-(2-Hydroxyethyl)-1-piperazinyl-5-thiadiazolyl]-1-methyl-5-nitroimidazole]
Salmonella gallinarum; [5]
  Survivors: 3
Salmonella gallinarum; 0.1% in feed, 10 chicks tested
  Survivors: 7
Pasteurella multocida [1]
  responders at 2 mg: 100%

## CNc1nnc(-c2ncc([N+](=O)[O-])n2CCO)o1 [2-(2-methylamino-5-oxadiazolyl)-1-(2-hydroxyethyl)-5-nitroimidazole]
Salmonella gallinarum; 0.1% in feed, 10 chicks tested
  Survivors: 6

## Nc1nnc(-c2ncc([N+](=O)[O-])n2CCO)s1 [2-(2-Amino-5-thiodiazolyl)-1-(2-hydroxyethyl)-5-nitroimidazole]
Pasteurella multocida [2]
  responders at 0.25 mg: 76.7%
  responders at 0.5 mg: 90%
  responders at 1 mg: 100%
[3]; 100 PPM in diet, 19 days
  % inc. over Controls, F/G: 6.5%
  % inc. over Controls, Gain: 7.6%
[3]; [11]
  Average Gain 19 Days: 297 Grams
  Average Wt. at 19 days: 340 Grams
[3]; 100 PPM in diet, average of two groups, 19 days
  Average lb. feed/lb. gain: 1.525 lb. feed/lb. gain
[3]; 100 PPM in diet, groups of 10 and 9 birds, 19 days, listed as 2-(2-amino-5-thiadiazolyl)-1-(2-hydroxyethyl)5-nitroimidazole
  lb.feed/lb. gain: 1.53 lb. feed/lb. gain and 1.52 lb. feed/lb. gain
[3]; [12]
  Gain 19 Days: 309 Grams and 285 Grams
  Wt. at 19 days: 352.2 Grams and 327.8 Grams
Salmonella gallinarum; [5]
  Survivors: 8
Salmonella gallinarum; 0.1% in feed, 10 chicks tested
  Survivors: 10

## Cn1c([N+](=O)[O-])cnc1-c1nnc(NC(C)(C)C)s1 [2-(2-t-Butylamino-5-thiadiazolyl)-1-methyl-5-nitroimidazole]
Salmonella gallinarum; 0.1% in feed, 10 chicks tested
  Survivors: 6

## CC(=O)Nc1nnc(-c2ncc([N+](=O)[O-])n2CCO)s1 [N-{5-[1-(2-Hydroxyethyl)-5-nitro-2-imidazolyl]-1,3,4-thiadiazol-2-yl-acetamide]
[3]; 10 ppm in diet, 10 birds
  Gain 19 Days: 305.5 Grams
  Weight at 19 days: 345.9 Grams
[3]; [9]
  % Increase Over Controls, F/G: 0.6%
  % Increase Over Controls, Gain: 0.7%
  lb.feed/lb. gain: 1.57 lb.feed/lb. gain

## CC(=O)Nc1nnc(-c2ncc([N+](=O)[O-])n2C)o1 [2-(2-Acetamido-5-oxadiazolyl)-1-methyl-5-nitroimidazole]
Salmonella gallinarum; [5]
  Survivors: 8
Salmonella gallinarum; 0.1% in feed, 10 chicks tested
  Survivors: 10
